From patent publication US20180125993A1 (BEIJING COTIMES BIOTECH COMPANY LIMITED, priority 2014, published 2018)
Marks after values point to notes of the source that are not given here. Each block holds one molecule with its values, some of them ahead of it.

Key:
WiDr = assay: Human colon cancer Widr subcutaneous model (Day 27 after treatment); format: in vivo, nude mice
Description: (§1) Tumor cells (i.e., MIA-PaCa-2, WiDr, H2122, colo205) were inoculated in nude mice's flank at 5×10^6 cells per mouse. The mice were grouped when the average volume of tumors reached about 100˜200 mm^3. “QW”=weekly dose. “Q3d”=dosed every third day. “BiW”=biweekly.
(§2) The bodyweight and major/minor axis of the mice were measured twice a week, and the tumor volumes were calculated using the formula: Tumor volume=1/2×major axis[…]. […] “T” represents average tumor volume of the experimental group (cm^3), and “C” represents average tumor volume of the control group (cm^3). The animals were monitored at all times. The bodyweight and major/minor axis or mice were measured twice a week.
(§3) Tumor volumes were represented with average±standard error. […] P<0.05 represents significant difference.

Colo205 = assay: Human colon cancer Colo205 subcutaneous model (Day 28 after treatment); format: in vivo, nude mice
Description: as §1, §2, §3

colon cancer, CS263, 1# = assay: Patients primary tumor tissue subcutaneous model (Day 35 after treatment); format: in vivo, nude mice
Description: (§4) Fresh primary tumor tissues from patients were implanted in NOD/SCID mice's flank, which developed into a primary tumor, which was then transferred to the nude mice's flank to allow the tumor reaching an exponential growth phase, and the tumor was named 1# tumor, and so on. When the tumor volume and number reached passage requirements, they were implanted into the right flank of nude mice. When the tumors' average volumes reached 100-200 mm^3, the mice were grouped.
(§5) The bodyweight and major/minor axis of mice were measured twice a week, and Tumor Growth Inhibition (TGI) and tumor volume were calculated same as in 5.1.5. In addition, to evaluate the synergetic effect of drug combination in tumor growth, Jin Zhengjun Q value judgment method was used with the follow formula: Q=Ea+b/(Ea+Eb−Ea×Eb). Ea+b is the inhibition ratio of drug combination, Ea and Eb are the inhibition ratio of each of drug treatment when it is administered alone. […] The animals were monitored, and when the experiments were concluded, mice were sacrificed and tumors were extracted and weighted. All the animal experiments confer to the regulations of animal's welfare and the management of experimental animal usage.
(§6) Tumor volumes were represented with average±standard error. Data analysis was done using Spss16.0, One-Way ANOVA, LSD (homogeneity of variance) or Dunnett T3 (non-homogeneity of variance). […] P<0.05 represents significant difference.

colon cancer, CS182, 5# = assay: Patients primary tumor tissue subcutaneous model (Day 27 after treatment); format: in vivo, nude mice; settings: Irinotecan 50 mg/kg i.v. BiW × 6 times
Description: as §4, §5, §6

colon cancer, CS146, 2# = assay: Patients primary tumor tissue subcutaneous model (Day 30 after treatment); format: in vivo, nude mice; settings: 5-Fu 50 mg/kg i.p. QW × 6w alone
Description: as §4, §5
Tumor volumes were represented with average±standard error. Data analysis was done using Spss16.0, One-Way ANOVA, LSD (homogeneity of variance) or Dunnett T3 (non-homogeneity of variance). […]

MIA-PaCa-2 = assay: Human pancreatic cancer MIA-PaCa-2 subcutaneous model (34 days of treatment); settings: for Tumor regression: treatment groups
H2122 = assay: Human lung cancer H2122 subcutaneous model (Day 38 after treatment); settings: for Tumor regression: treatment groups
lung cancer, CS225, 1# = assay: Patients primary tumor tissue subcutaneous model (Day 37 after treatment); format: in vivo, nude mice; settings: cisplatin 5 mg/kg i.p. QW × 2w
Description: as §4, §5, §6

[1] = molecular target: T1, DR4-His-EC (Lot: 090222-P, E coli.) (human, UniProt O00220 24-239, limits assumed); assay: CLEIA, antigen coated on microplate, HRP secondary antibody
T1 construct: it may mean extracellular or E. coli; also called TRAIL-R1; not shown: His tag
T1 sequence (looked up): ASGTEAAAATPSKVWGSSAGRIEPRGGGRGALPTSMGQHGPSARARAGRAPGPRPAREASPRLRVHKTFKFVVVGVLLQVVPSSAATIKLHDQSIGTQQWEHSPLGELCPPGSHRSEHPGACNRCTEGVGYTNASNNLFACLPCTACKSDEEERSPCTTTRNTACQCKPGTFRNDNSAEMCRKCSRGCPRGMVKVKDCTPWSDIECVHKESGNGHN

[2] = molecular target: T2, DcR2-His (recombinant human TRAIL R4/TNFRSF10D, Sino Biological) (human, UniProt Q9UBN6 56-211, limits assumed); assay: as above
T2 construct: Commercial protein; not shown: His tag
T2 sequence (looked up): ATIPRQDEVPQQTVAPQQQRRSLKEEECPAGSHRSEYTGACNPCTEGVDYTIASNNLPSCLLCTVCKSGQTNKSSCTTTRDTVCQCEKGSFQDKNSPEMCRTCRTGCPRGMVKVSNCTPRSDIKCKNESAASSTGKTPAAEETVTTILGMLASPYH

[3] = molecular target: T3, DcR1-His (recombinant human TRAIL R3/TNFRSF10C, Novoprotein Science) (human, UniProt O14798 26-221, limits assumed); assay: as above
T3 construct: Commercial protein; not shown: His tag
T3 sequence (looked up): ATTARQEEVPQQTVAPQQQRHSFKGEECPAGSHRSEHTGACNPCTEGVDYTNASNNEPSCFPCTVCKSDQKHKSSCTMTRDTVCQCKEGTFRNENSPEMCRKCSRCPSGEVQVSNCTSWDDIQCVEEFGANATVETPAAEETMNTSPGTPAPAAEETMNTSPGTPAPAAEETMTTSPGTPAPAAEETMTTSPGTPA

[4] = molecular target: T4, OPG-His (recombinant human osteroprotegerin/TNFRSF11B, Wuxi Pharmatech) (human, UniProt O00300 22-401, limits assumed); assay: as above
T4 construct: Commercial protein; also called osteoprotegerin; not shown: His tag
T4 sequence (looked up): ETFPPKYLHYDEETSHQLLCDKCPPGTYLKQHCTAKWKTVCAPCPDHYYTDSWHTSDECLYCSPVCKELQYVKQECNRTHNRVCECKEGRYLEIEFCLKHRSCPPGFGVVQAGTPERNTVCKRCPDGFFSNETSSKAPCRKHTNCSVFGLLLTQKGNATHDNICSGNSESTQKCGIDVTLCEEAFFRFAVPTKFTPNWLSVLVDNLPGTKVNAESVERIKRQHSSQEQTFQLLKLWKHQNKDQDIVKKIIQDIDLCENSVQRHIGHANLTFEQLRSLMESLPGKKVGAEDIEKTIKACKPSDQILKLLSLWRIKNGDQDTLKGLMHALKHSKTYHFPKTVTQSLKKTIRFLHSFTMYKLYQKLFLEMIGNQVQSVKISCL

[5] = Irinotecan 50 mg/kg i.v. BiW × 6 times
[6] = repeated experiment, Irinotecan group
[7] = Gemcitabine 60 mg/kg i.p. Q3d × 6W
[8] = Gemcitabine 60 mg/kg i.p. Q3d × 6W, listed as gemcitabine
[9] = repeated experiment, gemcitabine group
[10] = repeated experiment, Taxol group

Molecule: CCc1c2c(nc3ccc(OC(=O)N4CCC(N5CCCCC5)CC4)cc13)-c1cc3c(c(=O)n1C2)COC(=O)[C@]3(O)CC [Irinotecan, reference compound]
Tumor weight Mean ± SEM (WiDr; [5]): 0.26 ± 0.04 g
TGI (Calculated using tumor weight) (WiDr; [6]): 72.30%
Tumor weight Mean ± SEM (Colo205; [5]): 0.11 ± 0.02 g
Tumor regression (Colo205; first experiment, treatment groups): none was found
TGI calculated using the tumor weights (Colo205; [6]): 93.76%
TGI (Calculated using tumor weight) (colon cancer, CS263, 1#; [5]): 99.58%*
Tumor weight Mean ± SEM (colon cancer, CS263, 1#; [5]): 0.003 ± 0.002 g
TGI (Calculated using tumor weight) (colon cancer, CS263, 1#; Irinotecan 50 mg/kg i.v. BiW × 6 times, listed as irinotecan): 99.58%
Animals showing tumor regression (colon cancer, CS263, 1#; combination: Day 24 and Day 31, irinotecan: Day 35): one animal
TGI (Calculated using tumor weight) (colon cancer, CS182, 5#): 93.46%*
Tumor weight Mean ± SEM (colon cancer, CS182, 5#): 0.04 ± 0.00 g
TGI (Calculated using tumor weight) (colon cancer, CS182, 5#; listed as irinotecan): 93.46%

Molecule: O=c1[nH]cc(F)c(=O)[nH]1 [5-Fu, 5-fluorouracil, reference compound]
TGI (calculated using the tumor volumes of Day 30) (colon cancer, CS146, 2#): 37.95%

Molecule: Nc1ccn([C@@H]2O[C@H](CO)[C@@H](O)C2(F)F)c(=O)n1 [Gemcitabine, reference compound]
TGI (Calculated using tumor volumes) (MIA-PaCa-2; [7]): 52.60%**
TGI (Calculated using tumor weight) (MIA-PaCa-2; [7]): 55.66%*
Time of tumor volume changed significantly (MIA-PaCa-2; [7]): 10 days after first treatment
Tumor Volume Mean ± SEM (MIA-PaCa-2; [7]): 1.60 ± 0.11 cm^3
Tumor weight Mean ± SEM (MIA-PaCa-2; [7]): 0.84 ± 0.07 g
TGI (Calculated using tumor volumes) (MIA-PaCa-2; [8]): 52.60%
TGI (Calculated using tumor weight) (MIA-PaCa-2; [8]): 55.66%
Tumor regression (MIA-PaCa-2; first experiment): not found in the chemotherapy group
Tumor regression (MIA-PaCa-2; repeated experiment): not found in the chemotherapy group alone
TGI calculated based on the tumor volume (MIA-PaCa-2; [9]): 34.33%
TGI calculated based on the tumor weight (MIA-PaCa-2; [9]): 31.30%
Bodyweights of mice (MIA-PaCa-2; treatment groups over the time): decreased significantly by the third dosing

Molecule: CC(=O)O[C@H]1C(=O)[C@@]2(C)[C@H]([C@H](OC(=O)c3ccccc3)[C@]3(O)C[C@H](OC(=O)[C@H](O)[C@@H](NC(=O)c4ccccc4)c4ccccc4)C(C)=C1C3(C)C)[C@]1(OC(C)=O)CO[C@@H]1C[C@@H]2O [Taxol, reference compound]
T/C % (Calculated using tumor volumes) (H2122; Taxol 24 mg/kg i.p. Q6d × 6W): 55.33%
TGI (Calculated using tumor weight) (H2122; Taxol 24 mg/kg i.p. Q6d × 6W): 47.18%
Time of tumor volume changed significantly (H2122; Taxol 24 mg/kg i.p. Q6d × 6W): 11
Tumor Volume Mean ± SEM (H2122; Taxol 24 mg/kg i.p. Q6d × 6W): 1.08 ± 0.12 cm^3
Tumor weight Mean ± SEM (H2122; Taxol 24 mg/kg i.p. Q6d × 6W): 0.87 ± 0.12 g
Bodyweights (H2122; Taxol group, HuCTB006 0.2 mg/kg group): decreased, but were maintained at an acceptable level
Tumor regression (H2122; first experiment): none was observed
Tumor regression (H2122; repeated experiment): none was observed
TGI (Calculated using tumor volume) (H2122; [10]): 54.28%
TGI (Calculated using tumor weight) (H2122; [10]): 50.44%

Molecule: N.N.[Cl][Pt][Cl] [Cisplatin, cisplatin, reference compound]
T/C % (Calculated using tumor volumes) (lung cancer, CS225, 1#): 72.14%
TGI (Calculated using tumor volumes) (lung cancer, CS225, 1#): 31.45%
TGI (Calculated using tumor weight) (lung cancer, CS225, 1#): 32.66%
Time of tumor volume changed significantly (lung cancer, CS225, 1#): 7
Tumor Volume Mean ± SEM (lung cancer, CS225, 1#): 0.73 ± 0.06 cm^3
Tumor weight Mean ± SEM (lung cancer, CS225, 1#): 0.48 ± 0.08 g
TGI (Calculated using tumor volumes) (lung cancer, CS225, 1#; listed as cisplatin): 31.45%
TGI (Calculated using tumor weight) (lung cancer, CS225, 1#; listed as cisplatin): 32.66%

binding result [1]: no binding (tested: 200, 40 and 8 ng/mL)
binding result [2]: no binding (tested: 200, 40 and 8 ng/mL)
binding result [3]: no binding (tested: 200, 40 and 8 ng/mL)
binding result [4]: no binding (tested: 200, 40 and 8 ng/mL)
B1: HuCTB006, human chimeric anti-TRAIL-R2 (DR5) monoclonal antibody (antibody, human IgG1, V domains shown)
VH: EVQLQQSGPELVKPGASVRMSCKASGYTFTSYFIHWVKQRPGQGLEWIGWIYPGNVNTKYSEKFKGKATLTADKSSSTAYMQFSSLTSEDSAVYFCARGEAGYFDYWGQGTTLTVSS
VL: DIVMTQSHKFMSTSVGDRVSITCKASQDVSTAVAWYQQKPGQSPRLLIYWASTRHTGVPDRFTGSGSGTDYTLTISSVQAEDQALYYCQQHYRTPWTFGGGTKLEIKR
notes: also called human CTB006
